Laboratory results taken from patent publication US9284345B2 (priority 2007, dated 2016).
Where two headings read alike, the source gives them in different places.

Assays:
Immature Rat CX = details: sc
[1] = system: CX+ 4-DIONE in Mature Rat; test: Systemic antiandrogenic activity in mature male rats; type: in vivo; details: for inhibition of prostate weight (4-dione stimulated): 5 mg/rat
in vivo = details: male, Sprague-Dawley, rat, in vivo, po, 0.5 mg
Immature Rat CX + DHT = test: animal or person; type: in vivo; details: for change in vivo at 0.5 mg / change in vivo at 0.1 mg: Rattus norvegicus, 168 h
Human Androgen Receptor = biological target: T1, Human Androgen Receptor (Homo sapiens, UniProt P10275); type: binding
T1 construct: expressed in transfected cells; host or cells: HEK-293 cells stably transfected with the pCMVneo-hAR plasmid (G-418 selection); cytosol used
T1 sequence (P10275 1-920): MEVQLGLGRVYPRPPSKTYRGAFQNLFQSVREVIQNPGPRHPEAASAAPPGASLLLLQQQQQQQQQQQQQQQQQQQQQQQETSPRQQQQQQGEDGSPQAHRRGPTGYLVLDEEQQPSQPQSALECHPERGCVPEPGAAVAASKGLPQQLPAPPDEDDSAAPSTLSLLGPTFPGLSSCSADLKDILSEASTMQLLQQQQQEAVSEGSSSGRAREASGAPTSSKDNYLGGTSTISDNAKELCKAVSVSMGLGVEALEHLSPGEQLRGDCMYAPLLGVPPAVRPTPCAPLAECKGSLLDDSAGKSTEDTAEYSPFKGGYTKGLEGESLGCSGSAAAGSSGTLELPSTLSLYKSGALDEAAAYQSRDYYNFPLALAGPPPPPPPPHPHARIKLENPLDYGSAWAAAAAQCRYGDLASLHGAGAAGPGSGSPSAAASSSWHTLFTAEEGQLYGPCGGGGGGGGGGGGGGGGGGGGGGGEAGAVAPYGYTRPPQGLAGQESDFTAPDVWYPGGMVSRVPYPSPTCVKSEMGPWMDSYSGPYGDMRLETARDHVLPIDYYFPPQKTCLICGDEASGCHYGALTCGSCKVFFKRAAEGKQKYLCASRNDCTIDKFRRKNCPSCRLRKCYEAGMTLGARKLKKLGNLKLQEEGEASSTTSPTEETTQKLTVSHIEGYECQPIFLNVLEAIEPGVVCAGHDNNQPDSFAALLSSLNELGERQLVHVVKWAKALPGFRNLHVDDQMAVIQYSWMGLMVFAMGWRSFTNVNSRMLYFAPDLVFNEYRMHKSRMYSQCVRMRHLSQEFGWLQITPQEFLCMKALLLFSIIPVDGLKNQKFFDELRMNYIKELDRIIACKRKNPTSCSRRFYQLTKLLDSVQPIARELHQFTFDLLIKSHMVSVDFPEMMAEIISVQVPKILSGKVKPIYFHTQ

[2] = system: Shionogi mouse mammary carcinoma cells; test: cells; type: cell-based
Rat Androgen Receptor = biological target: T2, Rat Androgen Receptor (Rattus norvegicus, UniProt P15207); test: Androgen receptor binding assay (HAP, [3H]R1881), rat prostate cytosol
T2 construct: ventral prostates collected from 24 h-gonadectomized rats were homogenized in buffer A; from tissue; host or cells: rat ventral prostate cytosol (24 h-gonadectomized rats)
T2 sequence (P15207 1-902): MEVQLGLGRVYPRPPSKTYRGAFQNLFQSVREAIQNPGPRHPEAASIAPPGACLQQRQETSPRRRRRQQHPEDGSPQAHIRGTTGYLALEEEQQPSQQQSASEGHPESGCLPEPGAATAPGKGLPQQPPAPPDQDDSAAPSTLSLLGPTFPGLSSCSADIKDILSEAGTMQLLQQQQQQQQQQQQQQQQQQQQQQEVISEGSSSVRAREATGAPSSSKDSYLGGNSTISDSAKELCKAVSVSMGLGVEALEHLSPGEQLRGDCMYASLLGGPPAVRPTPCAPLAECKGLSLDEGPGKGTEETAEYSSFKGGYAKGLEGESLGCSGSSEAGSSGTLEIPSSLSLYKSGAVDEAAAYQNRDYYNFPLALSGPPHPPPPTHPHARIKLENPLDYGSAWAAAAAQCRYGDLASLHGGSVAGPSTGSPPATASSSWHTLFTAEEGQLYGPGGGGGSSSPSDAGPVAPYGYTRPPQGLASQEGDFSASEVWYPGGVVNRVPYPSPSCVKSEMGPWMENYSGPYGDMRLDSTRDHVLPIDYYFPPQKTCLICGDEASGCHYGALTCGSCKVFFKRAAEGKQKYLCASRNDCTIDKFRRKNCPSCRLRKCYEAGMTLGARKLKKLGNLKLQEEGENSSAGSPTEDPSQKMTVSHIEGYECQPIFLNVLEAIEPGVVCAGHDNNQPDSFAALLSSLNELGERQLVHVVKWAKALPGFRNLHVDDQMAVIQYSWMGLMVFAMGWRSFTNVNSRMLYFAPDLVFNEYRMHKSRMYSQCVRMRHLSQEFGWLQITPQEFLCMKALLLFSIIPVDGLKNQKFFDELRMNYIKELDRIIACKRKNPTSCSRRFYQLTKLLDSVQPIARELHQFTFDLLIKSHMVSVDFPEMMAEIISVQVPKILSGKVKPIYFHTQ
Description: On the morning of the binding assay, ventral prostates collected from 24 h-gonadectomized rats were homogenized in buffer A (1 g of tissue in 5 mL) and the homogenate was centrifuged as described above.
Androgen binding is measured using the hydroxylapatite (HAP) assay. In brief, the radioactive steroid [^3H]R1881 solubilized in ethanol is diluted with buffer B (10 mM Tris-HCl, 1.5 mM EDTA disodium salt, 10 mM α-monothioglycerol, pH 7.4). Aliquots of the cell or prostate cytosol preparation (0.1 ml) are then incubated with 5 nM [^3H]R1881 (0.1 ml, ˜100 000 cpm) in the presence or absence of the indicated concentrations of unlabeled compounds (0.1 ml, prepared in buffer B containing 30% ethanol) for 16-18 h at 0-4° C. Triamcinolone acetonide (TAC; 100 nM) is added to mask progesterone receptors. Unbound steroids are separated by incubation for 40 min at 0-4° C. with 0.3 ml HAP prepared in buffer P (50 mM Tris-HCl, 10 mM KH2PO4, pH 7.4). After incubation with HAP and 10 min of centrifugation at 1000×g, the pellet is washed 3 times with 1 ml of buffer P. Thereafter, the radioactivity is extracted from the pellet by incubation at room temperature for 60 min with 1 ml of ethanol. After centrifugation, the supernatant is decanted into a scintillation vial and the pellet is extracted again with ethanol. After the addition of scintillation liquid, the radioactivity is measured in a liquid scintillation counter.

androgen receptor = test: Antiandrogen / SARM / androgen profile observed on structural change; details: structure-activity observation in estratriene derivatives
Source text: Preferred positions on the steroid to this change in activities are 3, 4, 11β, 16 and 17α. […] Moreover, when we changed the 4-fluoro by a 4-chloro on EM-6583, we obtained a pure androgen (EM-5697). Similarly, when we increased the size of the chain at 17α-position on (1,4-phenylene as a spacer group), EM-8419 became a SARM. Again, when we changed the 4-fluoro by a 4-chloro on EM-8419, we obtained a pure androgen (EM-5313).
We also believed that a larger size increase could reverse the observed tendency (androgen to SARM or antiandrogen). Thus, it is not obvious to make good predictions of the biological activity of this compound family but some trends are observable.

Intact Rat = test: In vivo activity in intact rat (organ and muscle weight); details: rat, in vivo
[3] = po, read-out: In Vivo Antagonist % Change vs DHT (CX = −100%) SV
[4] = po, read-out: In Vivo Antagonist % Change vs DHT (CX = −100%) VP

Structure (SMILES)	In Vivo Agonist % Change vs CX (DHT = +100%) SV (Immature Rat CX)	In Vivo Agonist % Change vs CX (DHT = +100%) VP (Immature Rat CX)	% change vs 4-DIONE Cont (CX Cont = −100% inh) Seminal Vesicles ([1]; 1 mg/rat/per os/ID) [%]	% change vs 4-DIONE Cont (CX Cont = −100% inh) Ventral Prostate ([1]; 1 mg/rat/per os/ID) [%]	inhibition of prostate weight (4-dione stimulated) [1] [%]	% change vs 4-DIONE Cont (CX Cont = −100% inh) Seminal Vesicles ([1]; 5 mg/rat/per os/ID) [%]	% change vs 4-DIONE Cont (CX Cont = −100% inh) Ventral Prostate ([1]; 5 mg/rat/per os/ID) [%]	AUC (in vivo) [ng·h/mL]	change in vivo at 0.5 mg (Immature Rat CX + DHT; [3]) [%]	change in vivo at 0.5 mg (Immature Rat CX + DHT; [4]) [%]	also measured
CC(O)(CS(=O)(=O)c1ccc(F)cc1)C(=O)Nc1ccc(C#N)c(C(F)(F)F)c1 (stereo not drawn) [bicalutamide]	(0; 0.2 mg, sc) %	(0; 0.2 mg, sc) %	−82 ± 9	−44 ± 7	64	−90 ± 6	−64 ± 4	8500 ± 386	-86	-51	
CC(C)(O)C(=O)Nc1ccc([N+](=O)[O-])c(C(F)(F)F)c1 [Hydroxyflutamide, reference compound]								5380 ± 820			Human Androgen Receptor Binding RBA (%) R1881 = 100% (Human Androgen Receptor): 0.21 ± 0.09%; Shionogi cells Antiandrogenic activity Ki OH-Flu/Ki compound [2]: 1; Ki ([2]; read-out: Shionogi cells Antiandrogenic activity Ki): 16.8 ± 0.5 nM; Rat Androgen Receptor Binding RBA (%) R1881 = 100% (Rat Androgen Receptor): 0.1%
C[C@]12CCC3c4ccc(C#N)c(Cl)c4CCC3C1CC[C@@]2(O)Cc1ccc(-c2ccc[n+]([O-])c2)cc1 (stereo partly drawn) [EM-5313]											activity profile (antiandrogen, SARM or androgen) (androgen receptor): pure androgen
CC(C)C(=O)Nc1ccc([N+](=O)[O-])c(C(F)(F)F)c1 [Flutamide, reference compound]	(0; 0.2 mg, sc) %	(1; 0.2 mg, sc) %	−102 ± 8	−47 ± 7	70	−106 ± 6	−70 ± 3	39 ± 4	-83	-48	In Vivo Intact Rat % change vs Intact CONT (Intact CONT = +100%; CX CONT = 0%) Bulbo (Intact Rat): +42 ± 6%; In Vivo Intact Rat % change vs Intact CONT (Intact CONT = +100%; CX CONT = 0%) SZ (Intact Rat): +33 ± 4%; In Vivo Intact Rat % change vs Intact CONT (Intact CONT = +100%; CX CONT = 0%) VP (Intact Rat): +75 ± 4%; change in vivo at 0.1 mg (Immature Rat CX + DHT; [3]): -62 ± 4%; change in vivo at 0.1 mg (Immature Rat CX + DHT; [4]): -26 ± 2%; inhibition of DHT-stimulated seminal vesicle weight (Immature Rat CX + DHT; rat, in vivo): 83%; inhibition of DHT-stimulated ventral prostate weight (Immature Rat CX + DHT; rat, in vivo): 48%; In Vivo Anti-A Rat CX + DHT % change vs DHT (CX CONT = −100%) Bulbo (Immature Rat CX + DHT; rat, in vivo, po): [−68 ± 2] %; In Vivo Anti-A Rat CX + DHT % change vs DHT (CX CONT = −100%) SV (Immature Rat CX + DHT; rat, in vivo, po): [−83 ± 1] %; In Vivo Anti-A Rat CX + DHT % change vs DHT (CX CONT = −100%) VP (Immature Rat CX + DHT; rat, in vivo, po): [−48 ± 1] %
